In one assay the target is T1, C5L2 protein (Homo sapiens, UniProt Q9P296).
T1 construct: Myc (C); His (C); expressed in transfected cells; host or cells: 293 cell line (ATCC CRL-1573), cell membrane fraction
In words: Ligand screening: binding of radio-labeled candidate compound to cell membrane fraction of 293 cells transformed with pcDNAC5L2 versus empty-vector control. Conditions: final concentration of CGS21680 100 nM; 37° C. for 30 minutes; supernatant counted by liquid scintillation. How it is done: The transformants were incubated for 48 to 72 hours. The incubated cells were washed with PBS and, then, 1 ml/plate of EDTA-containing PBS (EDTA concentration: 0.01%) was added to the washed cells. Using Cell Scraper-L (catalog number: MS-93300) (manufactured and sold by Sumitomo Bakelite Co., Ltd., Japan), the cells were scraped off from the plate and washed twice with PBS. The washed cells were suspended in 0.5 ml of 25 mM HEPES solution (pH 7.4) containing Complete™ Protease Inhibitor Cocktail Set (manufactured and sold by Boehringer Mannheim Corporation, Germany), and the resultant cell suspension was transferred to a microtube. […]
The cell membrane fractions were prepared from the 293 cells (i.e., cells of 293 cell line) transformed with pcDNAC5L2 (i.e., C5L2 transformants) and the 293 cells transformed with pcDNA3.1/Myc-His(+)B vector (i.e., control) in substantially the same manner as in Example 5. […] Subsequently, the radioactivity of the prepared sample was measured by means of a scintillation counter (Beckman LS6000LL, manufactured and sold by Beckman Instruments, Inc., U.S.A.). The amount of the unbound candidate compound was determined from the measured radioactivity.

In assay [1] the target is T2, C5L2 protein-expressing CHO cells (Homo sapiens, UniProt Q9P296).
T2 construct: Myc (C); His (C); expressed in transfected cells; host or cells: CHO cells (ATCC CCL-61), Geneticin-selected
T2 sequence (Q9P296 whole entry): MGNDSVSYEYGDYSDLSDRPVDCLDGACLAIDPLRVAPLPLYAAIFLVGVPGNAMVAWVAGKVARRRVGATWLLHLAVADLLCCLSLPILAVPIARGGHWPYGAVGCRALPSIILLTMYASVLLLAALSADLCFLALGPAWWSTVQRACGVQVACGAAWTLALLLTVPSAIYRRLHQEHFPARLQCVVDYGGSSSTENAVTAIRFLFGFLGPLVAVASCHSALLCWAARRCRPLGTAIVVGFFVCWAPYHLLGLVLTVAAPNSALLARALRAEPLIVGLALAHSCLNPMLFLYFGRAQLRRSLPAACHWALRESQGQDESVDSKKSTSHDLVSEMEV
In words: Screening of a substance which antagonizes a ligand: chemotaxis assay of CHO cells transformed with C5L2 toward LPS-administered rat serum. Format: cell-based. Conditions: NECA final concentration 100 μM in upper and lower compartments; LPS-administered rat serum as ligand source. As for the experimental part:
A chemotaxis Assay was Conducted with respect to the CHO cells transformed with C5L2. […] The chemotaxis of the cells in the absence of the antagonist candidate substance against a ligand was compared with that in the presence of the antagonist candidate substance against a ligand.

Consider two molecules from patent publication US6777204B1, “Receptor protein and method for diagnosing inflammatory diseases by using the same” (Asahi Kasei Kabushiki Kaisha, priority 1998, dated 2004).

Molecules are shown by their SMILES.

T1 sequence (Q9P296 whole entry): as above

Consider `CCNC(=O)[C@H]1O[C@@H](n2cnc3c(N)nc(NCCc4ccc(CCC(=O)O)cc4)nc32)[C@H](O)[C@@H]1O` [CGS21680], for which the “radioactivity of unbound candidate compound, C5L2 transformants versus control cells” value at C5L2 protein is listed as “no difference in the radioactivity was observed”. As for `CCNC(=O)[C@H]1O[C@@H](n2cnc3c(N)ncnc32)[C@H](O)[C@@H]1O` [NECA, 5′-(N-ethylcarboxyamide)adenosine], the “chemotaxis of the cells in the presence versus absence of the antagonist candidate substance” value in assay [1] is reported as “no difference was observed”.
